Data published in patent US20210139610A1, “COMPOSITIONS AND METHODS FOR MEDIATING EPS” (priority 2018, published 2021).
Entries after “also recorded” stand apart in the source; their conditions may differ.

Columns and labels:
[1] = test system: B. cenocepacia biofilms; assay: Burkholderia cenocepacia in vitro biofilm disruption (COMSTAT); type: cell-based; conditions: 5 mg/mL HMGB1 at 24 h, total 40 h
Protocol: (§1) (FIG. 40A) B. cenocepacia biofilms were grown in LB media in 8 well chambered coverglass slides at 37° C. and 5% CO2. After 24 h, biofilms were treated 5 mg/mL HMGB1. After a total of 40 h, biofilms were stained with LIVE/DEAD®, visualized via CLSM and analyzed by COMSTAT. Bars represent the SEM. (FIG. 40B) C57BL/6 mice were infected with 10^7 CFU i.t., and simultaneously received 5 mg rHMGB1 or mHMGB1, a C45 S non-inflammatory variant. Aggregates of B. cenocepacia were visible by fluorescence microscopy in sections probed with an α-B. cenocepacia antibody (gray). After 18 h, (FIG. 40C) CFUs were quantified in BAL. Bars represent SD. *P<0.05, ***P<0.001.

[2] = test system: Z-DNA and B-DNA in the NTHI biofilm extracellular matrix; assay: Immunofluorescence CLSM for Z-DNA / B-DNA in NTHI biofilms; type: cell-based, Non-typeable Haemophilus influenzae; conditions: HMGB1 treatment at 24 h, read at 40 h
Protocol: FIG. 31: DNase degrades B-DNA, but not Z-DNA, within the biofilm extracellular matrix. DNase (Pulmozyme; 5 units) was added at 24 h after biofilm seeding to in vitro pre-formed NTHI biofilms.
FIG. 37: HMGB1 destabilizes Z-DNA structures in the biofilm extracellular matrix. Non-typeable Haemophilus influenzae biofilms were grown in supplemented BHI media in 8 well chambered coverglass slides at 37° C. and 5% CO2. After 24 h, biofilms were treated as indicated above. After 40 h, biofilms were washed, probed with primary antibodies directed against Z-DNA (light gray dots), a fluorescent secondary antibody, stained with DAPI (gray regions), and visualized via fluorescence microscopy.
FIGS. 50A-50B: Equilibrium shift of B-DNA to Z-DNA conversion alters biofilm formation. NTHI biofilms formed for 24 h were incubated with cerium chloride (CeCl3) or chloroquine for an additional 16 h and were probed with naive or anti-Z-DNA (white) by immunofluorescence CLSM.
FIGS. 51A-51B: Equilibrium shift of B-DNA to Z-DNA conversion alters biofilm formation. NTHI biofilms formed for 24 h were incubated with cerium chloride (CeCl3) (FIG. 51A) or chloroquine (FIG. 51B) for an additional 16 h. Z-DNA was measured by IF and CLSM using anti-Z-DNA and cells were stained with the membrane stain FM4-64. Bars represent the SEM. Statistical significance compared to control was assessed by paired t-tests, *P<0.05, **P<0.01.

[3] = test system: preformed NTHI biofilms; assay: Disruption of pre-formed NTHI biofilms (treatment after initial growth; LIVE/DEAD, CLSM, COMSTAT); type: cell-based, Non-typeable Haemophilus influenzae; conditions: 5 mg/mL HMGB1, treated at 24 h
[4] = test system: poly(dG-dC) substrate; assay: poly(dG-dC) substrate nuclease degradation (gel electrophoresis); type: biochemical; conditions: in presence of protective concentrations of spermidine/polyamines
Protocol: FIG. 32: Z-DNA formation protects DNA from nuclease degradation. A poly(dG-dC) substrate was incubated with salt activated nuclease (SAN) or DNase I in increasing concentrations of NaCl, spermine, or spermidine as indicated above. Degradation products were visualized by gel electrophoresis. High salt and polyamines protect DNA from degradation through conversion to the Z-DNA form.
FIGS. 34A-34B: DNABII proteins protect DNA by shifting to Z-DNA form. (FIG. 34A) A poly(dG-dC) substrate was incubated with DNase I in increasing concentrations of NTHi HU as indicated above. Degradation products were visualized by gel electrophoresis. […] (FIG. 34B) Top: Circular dichroism spectrum of a B-DNA substrate being converted to Z-DNA by increasing concentrations of a Z-DNA catalyst (adapted from Rahmouni (1992) Mol Microbiol. 6(5):569-72). Note inversion of negative peak around 250 nm and positive peak around 280 nm. Bottom: Poly(dGdC) DNA (5 μg) was incubated with HU (15 μM) for 2 h and CD spectra collected.
FIG. 41: HMGB1 reverts polyamine-induced Z-DNA to a nuclease sensitive B-DNA state. A poly(dG-dC) substrate was incubated with spermidine and HMGB1. Degradation products were visualized by gel electrophoresis.

[5] = test system: DNABII proteins; assay: DNABII proteins in NTHI biofilm and culture media (immunofluorescence, Western blot); type: cell-based, Non-typeable Haemophilus influenzae; conditions: HMGB1 treatment at 24 h, read at 40 h
Protocol: FIGS. 38A-38C: HMGB1 displaces DNABII proteins thereby disrupting NTHI biofilms. Non-typeable Haemophilus influenzae biofilms were grown in supplemented BHI media in 8 well chambered coverglass slides at 37° C. and 5% CO2. After 24 h, biofilms were treated as indicated. (FIG. 38A) After 40 h, biofilms were washed, probed with primary antibodies directed against DNABII proteins (light gray dots), a fluorescent secondary antibody, stained with DAPI (gray regions), and visualized via fluorescence microscopy. (FIG. 38B) Media from biofilm cultures was collected and analyzed via Western blot with a primary antibody that recognizes DNABII proteins. […] (FIG. 38C) COMSTAT quantification NTHI biofilms stained with LIVE/DEAD® and visualized with confocal microscopy after treatment with 5 mg/mL HMGB1.

[6] = test system: B. cenocepacia; assay: Mouse lung infection with B. cenocepacia (aggregates, CFU in BAL); type: in vivo, C57BL/6 mice; conditions: 10^7 CFU i.t. with simultaneous 5 mg rHMGB1 or mHMGB1, 18 h
Protocol: as §1

[7] = test system: NTHI biofilms in the middle ear; assay: Chinchilla model of otitis media due to NTHI, middle ear biofilm scoring; type: in vivo; conditions: 5 μg to middle ears at 4 and 5 days post infection, scored 24 h later
Protocol: FIGS. 39A-39B: HMGB1 promotes biofilm resolution in an experimental model (chinchilla host) of OM. Diluent or 5 μg rHMGB1 or mHMGB1 were delivered directly to middle ears of chinchillas at 4 and 5 days post infection with NTHI. Animals were sacrificed 24 h later, and their middle ears were imaged (FIG. 39A) and blindly scored (FIG. 39B) based on the criteria described in the bottom of (FIG. 39A). Bars represent SEM. ***P<0.001.

[8] = test system: eDNA scaffold structure of NTHI biofilms; assay: eDNA scaffold structure in early (3 h) NTHI biofilms, dsDNA immunofluorescence; type: cell-based, Non-typeable Haemophilus influenzae; conditions: DCHA 50 μM
Protocol: FIGS. 3A-3C: Polyamine synthesis inhibitor reduces biofilm formation. (FIG. 3A) COMSTAT quantification of LIVE/DEAD® stained NTHI biofilms grown in the presence of dicyclohexylamine (DCHA, 50 μM), a spermidine (Spd) synthase inhibitor, Spd (1 mM), or both. Bars represent the SEM. Statistical significance compared to control was assessed by unpaired t-tests, *P<0.05. […] (FIG. 3B) Immunofluorescence microscopy images of eDNA scaffold structure in NTHI in vitro biofilms grown for 3 h in the presence of DCHA (50 μM). […] (FIG. 3C) Immunofluorescence CLSM images of NTHI in vitro biofilms grown for 40 h in the presence of DCHA. Probed for Spd (white dots in FIG. 3C lower panel) and counterstained with DAPI (gray regions).
FIG. 16: Surface attached non-typeable Haemophilus influenzae were grown for 3 h in supplemented BHI media containing additives as indicated above in Fluorodish coverglass dishes at 37° C. and 5% CO2. Biofilms were washed, probed with primary antibodies directed towards double stranded DNA and a fluorescent secondary antibody (white).
(§2) Dicyclohexylamine inhibits spermidine synthase via a competitive inhibition mechanism, i.e. through binding to the same site on the protein as the putrescine substrate. Applicants therefore hypothesized that dicyclohexylamine would inhibit NTHi biofilm development.

[9] = test system: spermidine in the NTHI biofilm matrix; assay: Immunofluorescence for spermidine in NTHI biofilm matrix; type: cell-based, Non-typeable Haemophilus influenzae; conditions: grown 40 h in presence of DCHA
Protocol: FIG. 15: Non-typeable Haemophilus influenzae biofilms were grown for 40 h in supplemented BHI media containing additives as indicated above in 8 well chambered coverglass slides at 37° C. and 5% CO2. Biofilms were washed, probed with primary antibodies directed towards spermidine, a fluorescent secondary antibody (dark gray dots), and stained with DAPI (gray regions).
as §2

[10] = test system: spermidine levels in UPEC biofilms; type: cell-based
[11] = test system: Non-typeable Haemophilus influenzae biofilms; assay: NTHI in vitro biofilm formation, additive present from seeding (LIVE/DEAD, CLSM, COMSTAT); type: cell-based; conditions: for NTHI biofilm formation (average thickness, biomass): DCHA 50 μM
Protocol: FIG. 14: Non-typeable Haemophilus influenzae biofilms were grown for 40 h in supplemented BHI medium containing additives as indicated below each bar in 8 well chambered coverglass slides at 37° C. and 5% CO2. Biofilms were washed, stained with LIVE/DEAD®, fixed, and imaged by CLSM. Biofilm parameters were quantified using COMSTAT software.
Dicyclohexylamine inhibits spermidine synthase via a competitive inhibition mechanism, i.e. through binding to the same site on the protein as the putrescine substrate. Applicants therefore hypothesized that dicyclohexylamine would inhibit NTHi biofilm development. […]

[12] = test system: Non-typeable Haemophilus influenzae; assay: NTHI growth (absorbance at 490 nm, colony-forming units); type: cell-based; conditions: 16 h, supplemented BHI, up to 10 mM
Protocol: FIG. 13: Non-typeable Haemophilus influenzae were grown for 16 h in supplemented BHI media containing additives as indicated above in 96 well plates at 37° C. and 5% CO2. Growth was quantified by spectrophotometric absorbance at 490 nm (left) and by enumeration of colony-forming units (right).
as §2

[13] = test system: Non-typeable Haemophilus influenzae biofilms; assay: NTHI in vitro biofilm formation, additive present from seeding (LIVE/DEAD, CLSM, COMSTAT); type: cell-based; conditions: RNase A present from seeding, 16 h
[14] = listed as spermidine synthase inhibitor
[15] = listed as Dicyclohexylamine (DCHA)
[16] = listed as dicyclohexylamine (DCHA)
[17] = 50 μM dicyclohexylamine, 40 h, COMSTAT

With “HMGB1: high mobility group box 1 protein, eukaryotic chromatin protein of 215 amino acids” the “B. cenocepacia biofilm disruption in vitro” value [1] was “effective at disrupting biofilms formed in vitro by Burkholderia cenocepacia; also recorded: disrupts Burkholderia cenocepacia biofilms”, the “Z-DNA content of NTHI biofilm matrix” value [2] was “diminished Z-DNA content; also recorded: reduced Z-DNA structures in the biofilm matrix” and the NTHI biofilm disruption [3] was “significant biofilm disruption; also recorded: disrupts biofilms by displacing DNABII proteins”. The “nuclease sensitivity of poly(dG-dC) substrate” value [4] was “restored nuclease sensitivity to spermidine-induced Z-DNA substrates”, the “DNABII proteins in / released from the biofilm matrix” value [5] was “DNABII proteins were released from the biofilm; also recorded: displaced DNABII proteins from the biofilm matrix” and the “B. cenocepacia aggregate biofilm in lungs” value [6] was “prevented B. cenocepacia aggregate biofilm formation in the lungs of mice; also recorded: significantly disrupts B. cenocepacia biofilms in situ”. For the same molecule, the “resolution of middle ear NTHI biofilms” value [7] was “efficient resolution of adherent biofilms; also recorded: promoted clearance of pre-existing NTHI biofilms in situ”.

With `C1CCC(NC2CCCCC2)CC1` [dicyclohexylamine] the “eDNA scaffold structure amount and complexity” value ([8]; listed as DCHA) was “inhibited production of the eDNA scaffold; also recorded: eDNA scaffold structure production is greatly reduced”, the “eDNA scaffold structure amount and complexity” value ([8]; listed as Dicyclohexylamine) was “reduced the amount and the complexity of eDNA scaffold structures” and the “eDNA scaffold structure amount and complexity” value [8, 14] was “reduced both the presence and complexity of the extracellular DNA structure”. The “spermidine / polyamine presence in NTHI biofilm matrix” value (“spermidine / polyamine presence” for short) [9] was “statistically significant corresponding decrease in spermidine present in the biofilm matrix”, the “spermidine / polyamine presence” value ([9]; listed as DCHA) was “reduced extracellular polyamine incorporation into the biofilm EPS; also recorded: inhibits polyamine incorporation into the biofilm EPS” and the “spermidine / polyamine presence” value [9, 15] was “reduces spermidine levels in NTHI and UPEC biofilms”. The “spermidine / polyamine presence” value [9, 16] was “an overall decrease in spermidine levels as measured by IF”, the “spermidine / polyamine presence” value [9, 14] was “reduced spermidine presence in the biofilm matrix” and the “spermidine levels in UPEC biofilms” value [10] was “reduces spermidine levels in NTHI and UPEC biofilms”. For the same molecule, the biofilm roughness ([11]; 50 μM dicyclohexylamine, 40 h) was “increasing biofilm roughness”, the “reduction of biofilm biomass” value [11, 17] was “approximately 40%” and the “reduction of biofilm thickness” value [11, 17] was “approximately 40%”. For the same molecule, the “NTHI biofilm formation (average thickness, biomass)” value [11] was “significantly inhibited NTHi biofilm formation”, the “NTHI biofilm formation (average thickness, biomass)” value ([11]; listed as DCHA) was “inhibited biofilm biogenesis in vitro, decreasing average thickness and biomass; also recorded: Average thickness of biofilms was decreased” and the “NTHI biofilm formation (average thickness, biomass)” value ([11]; listed as Dicyclohexylamine) was “inhibited biofilm biogenesis”. For the same molecule, the “NTHI biofilm formation (average thickness, biomass)” value [11, 15] was “significantly decreased average thickness compared to sBHI control”, the “NTHI biofilm formation (average thickness, biomass)” value [11, 16] was “a significant decrease in biofilm average thickness” and the NTHi growth [12] was “did not affect NTHi growth up to 10 mM”. For the same molecule, the NTHi growth ([12]; listed as DCHA) was “did not affect NTHI growth” and the NTHi growth [12, 14] was “did not affect normal growth”.

B1: RNase A: ribonuclease (protein, UniProt P61823 27-150, looked up)
Ribonuclease pancreatic: KETAAAKFERQHMDSSTSAASSSNYCNQMMKSRNLTKDRCKPVNTFVHESLADVQAVCSQKNVACKNGQTNCYQSYSTMSITDCRETGSSKYPNCAYKTTQANKHIIVACEGNPYVPVHFDASV
In the case of B1, the NTHI biofilm formation [13] is reported as “stimulated biofilm formation in a dose-dependent manner”.
